{"source": "patent US20250213516A1", "about": "“Prophylactic Methods For Treating ALS” (BioJiva LLC, priority 2022, published 2025)", "key": {"[1]": {"test_system": "patients in the incipient stage of ALS", "experiment": "Clinical study, ALSFRS-R scoring of patients in the incipient stage of ALS", "format": "in vivo, human", "conditions": "for patients showing a better rate of decline (cut-off −11 change from baseline in ALSFRS-R): incipient stage, scored at 48 weeks", "from_the_text": "This rating scale evaluated 12 different components on a 0 (worse) to 4 (best) scale where the components are speech, salivation, swallowing, handwriting, […], food handling, dressing and hygiene, turning in bed, […], climbing stairs, dyspnea, orthopnea, and respiratory insufficiency. As used herein, patients diagnosed with ALS are first evaluated to determine their natural history which measures the extent of loss of muscular functional due to the disease prior to initiation of therapy.\nIn this example, 41 patients diagnosed with ALS were tested to ascertain their natural history. Of these 41 patients, 23 scored above 38 points in the ALSFRS-R scoring test and were assigned as having incipient ALS. […] Each cohort received three 1 gram pills t.i.d. (“.three times a day”) at breakfast, lunch and dinner for a total of 9 pills.\nAfter 24 weeks, each patient in each cohort were retested using the ALSFRS-R scoring test. The scores were then averaged for each cohort and the results are found in FIG. 1.\nEach cohort received three 1 gram pills t.i.d. (“.three times a day”) at breakfast, lunch and dinner for a total of 9 pills.\nAfter 48 weeks, each patient in each cohort were retested using the ALSFRS-R scoring test. The scores were then averaged."}, "[2]": {"test_system": "patients in the accelerated stage of ALS", "experiment": "Clinical study, ALSFRS-R scoring of patients in the accelerated stage of ALS", "format": "in vivo, human", "conditions": "9 g/day ethyl ester vs placebo, 24 weeks, FIG. 2", "from_the_text": "As used herein, the term “accelerated stage of ALS” refers to patients whose diseases progression has evidenced a more substantial loss of muscular functionality. For the purposes of this application, such is identified as having a natural history score of 37 or less.\nIn this example, the same 41 patients diagnosed with ALS used in Comparative Example 1 were used. […] Each cohort received three 1 gram pills t.i.d. at breakfast, lunch and dinner for a total of 9 pills.\nAfter 24 weeks, each patient in each cohort were retested using the ALSFRS-R scoring test. The scores were then averaged for each cohort and the results are found in FIG. 2."}, "inflammation model": {"test_system": "inflammation model", "experiment": "Inflammation model"}, "[3]": {"conditions": "average diet, about 14 grams linoleic acid per day; cited from earlier work"}}, "note": "Entries after “also recorded” stand apart in the source; their conditions may differ."}
{"smiles": "[2H]C([2H])(/C=C\\CCCCC)/C=C\\CCCCCCCC(=O)OCC", "values": [{"measurement": "change in ALSFRS-R scores (loss of functionality), cohort average", "setting": "[1]; incipient stage ALS, about 9 g/day ethyl ester (8.64 g acid) vs placebo, 24 weeks, FIG. 1", "value": "do not evidence a significant change; also recorded: minimal loss of functionality"}, {"measurement": "loss of muscular functionality (ALSFRS-R, cohort average)", "setting": "[2]", "value": "substantially less loss of muscular functionality"}]}
{"smiles": "[2H]C([2H])(/C=C\\CCCCC)/C=C\\C([2H])([2H])/C=C\\C([2H])([2H])/C=C\\CCCC(=O)O", "note": "[7,7,10,10,13,13-D6-arachidonic acid]", "values": [{"measurement": "activity relative to 13,13-D2-arachidonic acid", "setting": "inflammation model", "value": "a little more than twice as active"}]}
{"smiles": "[2H]C([2H])(/C=C\\CCCCC)/C=C\\CCCCCCCC(=O)O", "note": "[11,11-D2-linoleic acid]", "values": [{"measurement": "patients showing a better rate of decline (cut-off −11 change from baseline in ALSFRS-R)", "setting": "[1]; placebo for 24 weeks, then 8.64 g/day for 24 weeks", "value": 40, "unit": "%"}, {"measurement": "patients showing a better rate of decline (cut-off −11 change from baseline in ALSFRS-R)", "setting": "[1]; treated with 8.64 g/day for 48 weeks", "value": 70, "unit": "%"}]}
{"smiles": "CCCCC/C=C\\C/C=C\\CCCCCCCC(=O)O", "note": "[linoleic acid]", "values": [{"measurement": "portion of linoleic acid consumed hepatically converted to arachidonic acid", "setting": "[3]", "value": "about 10%"}]}
